Data published in paper PMC7044277 (Nature Communications, 2020).
“And” between values parts separate entries of the source, which are not always exact repeats. Equal entries are not always repeated.

What was measured:
[1] = target: T1, DRD2 F1103.28A (Homo sapiens, UniProt P14416, F110A); assay: β-arrestin2 recruitment (Tango), mutant; type: cell-based; set-up: expressed in transfected cells; host or cells: HEK293T (ATCC CRL-11268)
[2] = target: T2, DRD4 (D4.4 variant) (Homo sapiens, UniProt P21917); assay: β-arrestin2 recruitment (Tango); type: cell-based; conditions: DRD4; Tango; read-out: EC50 ± SEM
T2 sequence (P21917 1-419): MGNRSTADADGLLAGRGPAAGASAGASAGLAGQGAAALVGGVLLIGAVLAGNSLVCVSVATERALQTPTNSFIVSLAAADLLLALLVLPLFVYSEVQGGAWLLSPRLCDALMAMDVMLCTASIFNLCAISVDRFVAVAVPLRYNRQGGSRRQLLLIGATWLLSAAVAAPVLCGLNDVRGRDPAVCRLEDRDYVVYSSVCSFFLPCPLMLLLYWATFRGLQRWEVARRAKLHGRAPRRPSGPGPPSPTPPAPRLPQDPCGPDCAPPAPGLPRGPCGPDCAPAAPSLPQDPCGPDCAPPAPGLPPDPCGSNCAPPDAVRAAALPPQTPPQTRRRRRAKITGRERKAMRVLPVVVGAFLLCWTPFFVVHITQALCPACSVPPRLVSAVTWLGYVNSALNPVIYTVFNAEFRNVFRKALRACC

[3] = target: T3, DRD2 (D2 long receptor) (Homo sapiens, UniProt P14416); assay: β-arrestin2 recruitment (Tango), HTLA cells; type: cell-based; conditions: for response, Fig_S11e dose-response source data: replicate values
T3 sequence (P14416 whole entry): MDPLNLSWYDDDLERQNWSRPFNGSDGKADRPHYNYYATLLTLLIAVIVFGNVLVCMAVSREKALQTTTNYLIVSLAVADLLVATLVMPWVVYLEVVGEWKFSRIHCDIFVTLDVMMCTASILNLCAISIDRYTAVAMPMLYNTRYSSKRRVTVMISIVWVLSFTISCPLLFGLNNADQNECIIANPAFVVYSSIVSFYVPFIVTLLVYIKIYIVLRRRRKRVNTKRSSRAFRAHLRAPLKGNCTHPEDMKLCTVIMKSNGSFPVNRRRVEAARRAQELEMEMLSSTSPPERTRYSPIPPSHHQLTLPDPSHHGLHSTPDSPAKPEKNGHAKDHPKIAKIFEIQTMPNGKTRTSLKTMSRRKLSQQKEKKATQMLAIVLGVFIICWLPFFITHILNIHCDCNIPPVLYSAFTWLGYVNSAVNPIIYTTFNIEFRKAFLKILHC

[4] = target: T4, DRD3 F1063.28A (Homo sapiens, UniProt P35462, F106A); assay: cell-based; type: cell-based
T4 sequence (P35462 whole entry F106A): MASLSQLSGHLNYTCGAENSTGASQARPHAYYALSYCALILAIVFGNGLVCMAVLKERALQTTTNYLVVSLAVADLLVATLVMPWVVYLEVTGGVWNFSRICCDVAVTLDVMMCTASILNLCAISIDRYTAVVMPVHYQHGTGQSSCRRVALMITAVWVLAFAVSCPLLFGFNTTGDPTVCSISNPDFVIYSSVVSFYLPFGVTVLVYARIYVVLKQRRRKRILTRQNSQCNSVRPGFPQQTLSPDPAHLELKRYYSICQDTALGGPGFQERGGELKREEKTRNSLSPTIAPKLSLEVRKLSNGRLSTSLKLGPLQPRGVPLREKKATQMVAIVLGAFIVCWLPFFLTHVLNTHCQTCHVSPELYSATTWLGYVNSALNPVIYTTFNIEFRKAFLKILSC

[5] = target: T5, DRD4 (D4.4 variant) wild-type (Homo sapiens, UniProt P21917); assay: Radioligand competition binding, [3H]-N-methylspiperone; conditions: DRD4; [3H]-methylspiperone (0.8-1.0 nM); read-out: Ki
T5 sequence (P21917 1-419): T2 sequence (P21917 1-419)

[6] = target: T3, DRD2 (D2 long receptor); assay: Gαi/o-mediated cAMP inhibition (GloSensor split-luciferase cAMP reporter), HEK293T; type: cell-based; conditions: for response, Fig_S11d dose-response source data: replicate values;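 as to all read-outs here: compounds applied 15 min at room temperature, then luciferin plus 400 nM isoproterenol to raise cAMP through endogenous β2-adrenergic receptors, luminescence read 15 min later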
[7] = target: T6, DRD2 F1103.28L (Homo sapiens, UniProt P14416, F110L); assay: Gαi/o-mediated cAMP inhibition (GloSensor), mutant; type: cell-based
T6 construct: expressed in transfected cells; host or cells: HEK293T (ATCC CRL-11268)
T6 sequence (P14416 whole entry F110L): as the sequence (P14416 whole entry) above, with F110L counted along it

[8] = target: DRD3 (Homo sapiens, UniProt P35462); assay: β-arrestin2 recruitment (Tango); type: cell-based; conditions: DRD3, Tango
Chain of DRD3 (P35462 whole entry): as the sequence (P35462 whole entry F106A) above, with A106F counted along it

[9] = target: T4, DRD3 F1063.28A; assay: biochemical; type: binding
[10] = target: DRD2 (D2 long receptor) wild-type (Homo sapiens, UniProt P14416); assay: Radioligand competition binding, [3H]-N-methylspiperone, HEK293T membranes; conditions: DRD2; [3H]-methylspiperone (0.8-1.0 nM); read-out: Ki
Chain of DRD2 (D2 long receptor) wild-type (P14416 whole entry): as the sequence (P14416 whole entry) above

[11] = target: T1, DRD2 F1103.28A; assay: Gαi/o-mediated cAMP inhibition (GloSensor), mutant; type: cell-based; set-up: expressed in transfected cells; host or cells: HEK293T (ATCC CRL-11268)
[12] = target: T1, DRD2 F1103.28A; type: binding; set-up: expressed in transfected cells; host or cells: HEK293T (ATCC CRL-11268)
[13] = target: DRD3 wild-type (Homo sapiens, UniProt P35462); assay: Radioligand competition binding, [3H]-N-methylspiperone; conditions: DRD3; [3H]-methylspiperone (0.8-1.0 nM); read-out: Ki
Chain of DRD3 wild-type (P35462 whole entry): as the sequence (P35462 whole entry F106A) above, with A106F counted along it

[14] = target: T6, DRD2 F1103.28L; assay: β-arrestin2 recruitment (Tango), mutant; type: cell-based
[15] = target: T2, DRD4 (D4.4 variant); assay: Gαi/o-mediated cAMP inhibition (GloSensor); type: cell-based; conditions: DRD4; agonist, cAMP inhibition; read-out: EC50 ± SEM
[16] = read-out: Emax relative to quinpirole response

T1 sequence (P14416 whole entry F110A): as the sequence (P14416 whole entry) above, with F110A counted along it

SMILES: CCOc1cccc2cc(C(C)NCC3(O)CCCCCC3)oc12 (stereo not shown) [O4LE7]
- EC50 [1]: > 10000 nM
- EC50 [2]: > 10000 nM
- EC50 ([3]; DRD2, β-arrestin2 recruitment (Tango), read-out: EC50 ± SEM): 44.6 ± 4.71 nM
- response, Fig_S11e dose-response source data ([3]; Log[Drug] -6.52): 70.7144
- response, Fig_S11e dose-response source data ([3]; Log[Drug] -7): 60.0625 and 58.8888 and 58.966 and 44.6969 and 52.556 and 54.4002 and 47.2717 and 45.6897 and 52.8235
- response, Fig_S11e dose-response source data ([3]; Log[Drug] -7.52): 37.663 and 37.8279 and 34.2682 and 29.2235 and 29.8377 and 33.7069 and 31.0328 and 28.5097 and 31.1567
- response, Fig_S11e dose-response source data ([3]; Log[Drug] -8): 19.0993 and 25.2494 and 16.3411 and 14.3144 and 11.2312 and 12.8766 and 17.2566 and 18.2263 and 16.5156
- response, Fig_S11e dose-response source data ([3]; Log[Drug] -8.52): 6.955 and 10.6803 and 8.41 and 5.811 and 4.949 and 5.989 and 8.148 and 9.142 and 8.777
- response, Fig_S11e dose-response source data ([3]; Log[Drug] -9): 5.592 and 4.443 and 5.4634 and 4.207 and 4.266 and 4.232 and 6.141 and 5.2483 and 8.786
- response, Fig_S11e dose-response source data ([3]; Log[Drug] -9.52): 4.527 and 4.325 and 4.4009 and 4.395 and 4.556 and 4.701 and 4.762 and 4.575 and 4.648
- response, Fig_S11e dose-response source data ([3]; Log[Drug] -10): 3.636 and 4.222 and 3.934 and 4.061 and 4.088 and 4.136 and 4.898 and 3.74 and 4.41
- response, Fig_S11e dose-response source data ([3]; Log[Drug] -10.52): 4.52 and 6.171 and 4.768 and 3.986 and 4.148 and 4.0514 and 3.608 and 3.803 and 4.57
- response, Fig_S11e dose-response source data ([3]; Log[Drug] -11): 5.604 and 3.965 and 4.161 and 3.823 and 4.063 and 4.032 and 3.814 and 4.075 and 4.582
- response, Fig_S11e dose-response source data ([3]; Log[Drug] -11.52): 3.3514 and 3.514 and 3.342 and 3.863 and 4.025 and 4.187 and 4.1 and 3.746 and 4.367
- response, Fig_S11e dose-response source data ([3]; Log[Drug] -12): 4.706 and 3.881 and 4.189 and 3.844 (2×) and 3.873 and 3.954 and 3.594 and 3.602
- Emax ([3]; HTLA, read-out: Emax relative to quinpirole response, DRD2, Tango): 71.8%
- EC50 [4]: > 10000 nM
- Ki [5]: 4070 nM
- EC50 ([6]; DRD2, agonist, Gαi/o-mediated cAMP inhibition, read-out: EC50 ± SEM): 1.65 ± 1.05 nM
- response, Fig_S11d dose-response source data ([6]; Log[Drug] -6.52): 96.8634
- response, Fig_S11d dose-response source data ([6]; Log[Drug] -7): 95.598 and 91.4295 and 85.3505 and 88.3932 and 84.5729 and 79.5858 and 85.933 and 88.7083 and 90.2631
- response, Fig_S11d dose-response source data ([6]; Log[Drug] -7.52): 86.7896 and 85.152 and 83.291 and 74.147 and 71.7381 and 81.1478 and 90.9653 and 82.4555 and 87.421
- response, Fig_S11d dose-response source data ([6]; Log[Drug] -8): 74.0608 and 77.7579 and 74.8548 and 59.6561 and 53.4646 and 60.8794 and 74.9823 and 74.9154 and 83.8097
- response, Fig_S11d dose-response source data ([6]; Log[Drug] -8.52): 64.5825 and 59.1734 and 57.1139 and 43.5468 and 40.7239 and 43.8667 and 54.9367 and 67.0577 and 71.5884
- response, Fig_S11d dose-response source data ([6]; Log[Drug] -9): 50.9108 and 57.9824 and 64.8058 and 28.6043 and 24.1441 and 25.7626 and 68.5958 and 61.4569 and 59.9355
- response, Fig_S11d dose-response source data ([6]; Log[Drug] -9.52): 29.7954 and 31.0609 and 40.6137 and 14.7533 and 4.309 and 6.285 and 34.6235 and 38.6026 and 45.7749
- response, Fig_S11d dose-response source data ([6]; Log[Drug] -10): 30.912 and 22.4013 and 39.5964 and 4.779 and -4.2354 and 0.1871 and 39.589 and 34.2056 and 43.2671
- response, Fig_S11d dose-response source data ([6]; Log[Drug] -10.52): 36.5196 and 13.1215 and 30.515 and 10.8765 and -4.6118 and 7.301 and 39.8732 and 28.9894 and 33.9548
- response, Fig_S11d dose-response source data ([6]; Log[Drug] -11): 25.0067 and 7.067 and 19.399 and -4.2354 and -19.0273 and 3.763 and 32.3665 and 18.8244 and 27.4345
- response, Fig_S11d dose-response source data ([6]; Log[Drug] -11.52): 11.5335 and 13.2455 and 15.2305 and 7.489 and 4.214 and 9.484 and 32.4836 and 21.3489 and 42.8324
- response, Fig_S11d dose-response source data ([6]; Log[Drug] -12): 5.306 and -4.8923 and -12.733 and -1.883 and -0.2081 and -16.5056 and -3.2274 and 22.4524 and -2.0571
- Emax ([6]; HEK-293T, read-out: Emax relative to quinpirole response, DRD2, cAMP inhibition): 95.2%
- EC50 ([7]; DRD2 F1103.28L (b138 head prints DRD2 F1063.28L)): 3.61 ± 0.07 nM
- Emax ([7]; read-out: Emax relative to quinpirole response, DRD2 F1103.28L): 72.6%
- EC50 ([8]; read-out: EC50 ± SEM): 803 ± 265 nM
- Emax [8, 16]: 32.3%
- Ki [9]: 417 nM
- affinity decreased, mutant vs wild type ([9]; DRD3 Phe106^3.28Ala vs wild-type DRD3): 1.75 fold
- Ki [10]: 1580 nM
- EC50 [11]: > 10000 nM
- Ki ([12]; DRD2 F1103.28A, read-out: pKi ± SEM (converted)): 214 nM
- affinity increase (binding enhanced), mutant vs wild type ([12]; DRD2 Phe110^3.28Ala vs wild-type DRD2): 7.52 fold
- Ki [13]: 240 nM
- EC50 [14]: 504 nM
- Emax [14, 16]: 25.8%
- EC50 [15]: > 10000 nM
